Experimental data: PMC3856494, “Radiofluorination and biological evaluation of N-aryl-oxadiazolyl-propionamides as potential radioligands for PET imaging of cannabinoid CB2 receptors” (Organic and Medicinal Chemistry Letters, 2013)
Read-outs that look alike come from different tables or passages of the source.

Experiments:
[1] = Ex vivo metabolite studies (radio-HPLC of plasma and brain extracts); assay type: in vivo, CD1 mice; conditions: mice
Protocol: (§1) [^18F]1 and [^18F]2 (100 to 150 MBq, 250 to 450 GBq/μmol in 150 μL NaCl 0.9%/10% EtOH) were injected via the tail vein in CD1 male mice (10 to 12 weeks old, 20 to 25 g). Blood and urine samples were obtained at 30 and 60 min p.i. (n = 3 per time point). Twofold extractions of plasma and brain samples (n = 3) were performed using ice-cold MeCN according to the standard protocol established in our group (see [47, 48]). Briefly, plasma samples were obtained by centrifugation of the blood at 4,000×g at 4°C for 10 min, and brain samples were homogenized in ice-cold 50 mM Tris–HCl (pH = 7.4). The samples were vortexed, incubated on ice, and centrifuged at 10,000×g for 3 min. Supernatants were collected, and the precipitates were re-dissolved in ice-cold MeCN for the second extraction. The supernatants from the two extractions were combined, concentrated under a gentle argon stream at 65°C, and analyzed by radio-TLC and gradient analytical HPLC (see ‘Radiochemistry’ section). Aliquots from each extraction supernatant and the precipitates were also taken and quantified by γ counting (Wallac Wizard 1470, Perkin Elmer Inc., Waltham, MA, USA) along with the respective aliquots of intact plasma samples and brain homogenates. A moderate recovery of radioactivity was obtained from plasma samples and brain homogenates (60% to 70%). Radiometabolites of [^18F]17 in the plasma, spleen, and brain were assessed at 30 and 60 min p.i.

[2] = In vivo metabolism of [18F]17 and uptake of [18F]10; set-up: species or system CD1 mice; conditions: for tissue uptake at 0.5 h / tissue uptake at 1 h: mouse, iv, after i.v. 100 to 200 kBq [18F]17, female CD1 mice
Protocol: The total amount of activity measured in, e.g. the plasma at particular times p.i. also depends on the kinetics of the excretion of radiotracer/radiometabolites. For [^18F]2, this is more pronounced than for [^18F]1 with unmetabolized [^18F]2 accounting for only 2% of the total radioactivity in the plasma at 30 min p.i. At this time, more than 90% of the recovered activity in plasma samples for [^18F]2 consisted of the single radiometabolite M1b. As this value decreases only slightly up to 60 min p.i. (88%), M1b can be assumed as a rather metabolically stable compound. This radiometabolite of [^18F]2 probably corresponds to the N-aryl-oxadiazolyl-propanoic acid resulting from enzymatic hydrolysis of the amide bond of 2[40]. […] In order introduce ^18F into the molecule, the carbon acid moiety was protected as a methyl ester resulting in the labelled compound [^18F]17 (Scheme 5). It was expected that after injection of this compound in mice, the ester will be converted into the free acid [^18F]10. […] After intravenous injection of [^18F]17 in CD1 mice, samples of the plasma, brain, and spleen were analyzed at 30 and 60 min p.i. (Table 5).
as §1

A melting point of 109 °C was found for `CCn1c2ccccc2c2cc(NC(=O)CCc3nc(-c4ccc([N+](C)(C)C)cc4Br)no3)ccc21.[I-]` [Compound 13, 3-Bromo-4-(5-(3-((9-ethyl-9H-carbazol-3-yl)amino)-3-oxopropyl)-1,2,4-oxadiazol-3-yl)-N,N,N-trimethylbenzenaminium iodide] in this work.
A melting point of 136 °C was found for `Cc1ccc(S(=O)(=O)OCCn2c3ccccc3c3cc(NC(=O)CCc4nc(-c5ccc(F)cc5Br)no4)ccc32)cc1` [Compound 15, [2-(3-{3-[3-(2-Bromo-4-fluorophenyl)-1,2,4-oxadiazol-5-yl]propanamido}-9H-carbazol-9-yl)ethyl] 4-methylbenzenesulfonate] in this work.
A melting point of 39 °C was found for `COC(=O)CCc1nc(-c2ccc(F)cc2Br)no1` [Compound 17, Methyl-3-(3-(2-bromo-4-fluorophenyl)-1,2,4-oxadiazol-5-yl)propanoate] in this work.
A melting point of 119 °C was found for `COC(=O)CCc1nc(-c2ccc([N+](C)(C)C)cc2Br)no1.[I-]` [Compound 18, 3-Bromo-4-(5-(3-methoxy-3-oxopropyl)-1,2,4-oxadiazol-3-yl)-N,N,N-trimethylbenzenaminium iodide] in this work.
With `O=C(O)CCc1nc(-c2ccc([18F])cc2Br)no1` [[^18F]10] the “Percentage of total activity in brain samples, 30 min p.i.” value ([1]; brain homogenate extract, 30 min p.i. of [18F]1 or [18F]2, radio-HPLC) was 8%, the “Percentage of total activity in brain samples, 60 min p.i.” value ([1]; brain homogenate extract, 60 min p.i. of [18F]1 or [18F]2, radio-HPLC) was 51% and the “Relative percentage of intact tracer and radiometabolites, Plasma 60 min p.i.” value ([1]; plasma, 60 min p.i. of [18F]1 or [18F]2, radio-HPLC) was 88%. For the same compound, the tissue uptake at 0.5 h ([2]; brain, read-out: uptake, Brain, 30 min p.i.) was 0.28 %ID/g, the tissue uptake at 1 h ([2]; brain, read-out: uptake, Brain, 60 min p.i.) was 0.29 %ID/g and the tissue uptake at 0.5 h ([2]; plasma, read-out: uptake, Plasma, 30 min p.i.) was 18.2 %ID/g. For the same compound, the tissue uptake at 1 h ([2]; plasma, read-out: uptake, Plasma, 60 min p.i.) was 15.4 %ID/g, the tissue uptake at 0.5 h ([2]; spleen, read-out: uptake, Spleen, 30 min p.i.) was 1.35 %ID/g and the tissue uptake at 1 h ([2]; spleen, read-out: uptake, Spleen, 60 min p.i.) was 1.31 %ID/g. The “Further metabolic transformation in brain and spleen samples” value ([2]; up to 60 min p.i. of [18F]17, CD1 mice) was “no further metabolic transformation”.
With `COC(=O)CCc1nc(-c2ccc([18F])cc2Br)no1` [[^18F]17] the “Conversion to free acid [18F]10 in plasma samples” value ([2]; plasma, 30 min p.i., i.v., CD1 mice) was “completely converted”.
